The values below come from patent publication US20240408093A1, “HETEROBIFUNCTIONAL COMPOUNDS AND THEIR USE IN TREATING DISEASE” (HALDA THERAPEUTICS OPCO, INC., priority 2022, published 2024).

The structures appear in SMILES notation. Read-outs that look alike come from different tables or passages of the source.

Assay [1] addresses T1, CCNK (Homo sapiens, UniProt O75909+Q16531+Q9NYV4).
T1 construct: expressed in transfected cells; host or cells: HEK293 LgBiT cells (Promega), lentiviral transduction, puromycin selection
Description: CCNK HiBiT degradation assay. It is filed as cell-based. The settings on record: HEK293 LgBiT/CCNK HiBiT cells, 6 hours. How it is done: HEK293 LgBiT cells (Promega) were cultured in DMEM (Gibco 11995), supplemented with 10% Heat-inactivated FBS (Gibco A38400-01) and 1% Penicillin/Streptomycin (Gibco 15140-122) and 200 μg/ml Hygromycin B (Gibco 10-687-010) at 37° C. with 5% CO2 in a humidified tissue culture incubator. Cells were made stable for CCNK fused to a C-terminal HiBiT peptide by lentiviral transduction, followed by selection with 1 μg/ml Puromycin Dihydrochloride (Thermo A1113803). HEK293 LgBiT/CCNK HiBiT cells were seeded at 3000 cells/well in 384-well, tissue culture-treated white plates (Perkin Elmer 6007680) in 25 μL media lacking selection for 18-24 hours. Plates were spun at 300 g for 30 seconds and stored in the incubator overnight. After 24 hours, compounds were titrated in DMSO and added to media supplemented with Endurazine Substrate (Promega N2570). A 25 ul aliquot of 2× compound/endurazine in media were then added to the 384-well microplate with seeded cells. (Endurazine was used at a final concentration of 0.5×). The plate was spun at 300 g for 30 seconds and stored in the incubator. After 6 hours the plate was read on Envision MultiMode Plate Reader 2105 (Perkin Elmer) to measure luminescence signal. Data were plotted in Prism (Graphpad) and the concentration of compound at which 50% CCNK degradation occurs (DC50) was calculated.
In general terms: The HiBiT peptide binds its large partner to form an active luciferase.

For assay [2], the system named is CCNK. Description: Payload release assay (DC50 readout), CCNK degradation in the presence of recombinant target protein. It is filed as cell-based. As for the experimental part:
Exemplary compounds were tested for ability to cause degradation of CCNK or GSPT1 in the presence of recombinant target protein.
HEK293 LgBiT/GSPT1 HiBiT CRISPR Knock-in cells (Promega) were cultured in DMEM (Gibco 11995), supplemented with 10% Heat-inactivated FBS (Gibco A38400-01) and 1% Penicillin/Streptomycin (Gibco 15140-122) and 200 Vg/ml Hygromycin B (Gibco 10-687-010) at 37° C. with 5% CO2 in a humidified tissue culture incubator. HEK293 LgBiT/CCNK HiBiT cells (in-house, described above) were cultured in DMEM (Gibco 11995), supplemented with 10% Heat-inactivated FBS (Gibco A38400-01) and 1% Penicillin/Streptomycin (Gibco 15140-122) 200 Vg/ml Hygromycin B (Gibco 10-687-010), and 1 Vg/ml Puromycin Dihydrochloride (Thermo A1113803) at 37° C. with 5% CO2 in a humidified tissue culture incubator. Cells were seeded (1000 cells/well for HEK293 LgBiT/GSPT1 HiBiT cells or 3000 cells/well for HEK293 LgBiT/CCNK HiBiT cells) 384-well, tissue culture-treated white plates (Perkin Elmer 6007680) in 10 μL media lacking selection for 18-24 hours. Plates were spun at 300 g for 30 seconds and stored in the incubator overnight. After 24 hours, a 5 μL aliquot of recombinant target protein (final concentration of either 5 μM KRAS amino acids 1-169, C51S, C80L, C118S, G12C or 3 μM EGFR amino acids 696-1022 or 3 μM EGFR amino acids 696-1022, T790M, L858R) was added to wells, followed immediately by a 5 μL aliquot of 4× compound-containing medium supplemented with Endurazine Substrate (Promega N2570) was added in each well, at a final top concentration of 10 μM test compound and 0.5× Endurazine, with 4-fold dilutions, using DMSO alone as a negative control. Plates were then spun at 300×g for 3 minutes again and cultured at 37° C. with 5% CO2. After 6 hours the plate was read on Envision MultiMode Plate Reader 2105 (Perkin Elmer) to measure luminescence signal. Data was normalized to DMSO treated cell wells. A four-parameter non-linear regression curve fit was applied to dose-response data in Prism to determine the half maximal growth inhibitory concentration (GI50) of each compound.

Setting [3] is: 0 μM recombinant EGFR T790M L858R, II-series and V-4 (CCNK readout inferred), read-out: DC50 at 0 μM EGFR T790M L858R.
The mark [4] stands for this setting: 0 μM recombinant EGFR WT, II-series and V-4 (CCNK readout inferred), read-out: DC50 at 0 μM EGFR WT.
The mark [5] stands for this setting: 3 μM recombinant EGFR T790M L858R, II-series and V-4 (CCNK readout inferred), read-out: DC50 at 3 μM EGFR T790M L858R.
Setting [6] is: 3 μM recombinant EGFR WT, II-series and V-4 (CCNK readout inferred), read-out: DC50 at 3 μM EGFR WT.
[7] abbreviates: 0 μM recombinant KRAS G12C, II-series compounds (CCNK readout inferred), read-out: DC50 at 0 μM KRAS G12C.
Where [8] appears, read: 5 μM recombinant KRAS G12C, II-series compounds (CCNK readout inferred), read-out: DC50 at 5 μM KRAS G12C.

In general, DC50 refers to the midpoint of the concentration-degradation curve.

T1 sequence (O75909 whole entry, species assumed): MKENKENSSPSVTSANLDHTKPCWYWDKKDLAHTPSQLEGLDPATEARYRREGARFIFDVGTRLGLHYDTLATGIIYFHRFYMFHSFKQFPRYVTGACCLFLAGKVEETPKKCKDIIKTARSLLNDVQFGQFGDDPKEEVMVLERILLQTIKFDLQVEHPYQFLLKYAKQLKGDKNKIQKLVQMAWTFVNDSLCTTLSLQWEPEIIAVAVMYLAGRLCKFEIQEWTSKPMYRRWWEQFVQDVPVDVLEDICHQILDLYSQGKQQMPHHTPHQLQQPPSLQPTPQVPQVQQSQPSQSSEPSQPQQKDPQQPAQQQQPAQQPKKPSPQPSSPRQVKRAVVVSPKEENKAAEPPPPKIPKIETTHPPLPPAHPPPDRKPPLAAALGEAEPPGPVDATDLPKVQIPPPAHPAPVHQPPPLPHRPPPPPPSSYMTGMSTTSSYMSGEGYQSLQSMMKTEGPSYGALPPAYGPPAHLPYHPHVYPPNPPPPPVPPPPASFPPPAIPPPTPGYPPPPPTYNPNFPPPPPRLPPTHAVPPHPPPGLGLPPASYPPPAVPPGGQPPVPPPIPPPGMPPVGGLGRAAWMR
T1 sequence (Q9NYV4 whole entry, species assumed): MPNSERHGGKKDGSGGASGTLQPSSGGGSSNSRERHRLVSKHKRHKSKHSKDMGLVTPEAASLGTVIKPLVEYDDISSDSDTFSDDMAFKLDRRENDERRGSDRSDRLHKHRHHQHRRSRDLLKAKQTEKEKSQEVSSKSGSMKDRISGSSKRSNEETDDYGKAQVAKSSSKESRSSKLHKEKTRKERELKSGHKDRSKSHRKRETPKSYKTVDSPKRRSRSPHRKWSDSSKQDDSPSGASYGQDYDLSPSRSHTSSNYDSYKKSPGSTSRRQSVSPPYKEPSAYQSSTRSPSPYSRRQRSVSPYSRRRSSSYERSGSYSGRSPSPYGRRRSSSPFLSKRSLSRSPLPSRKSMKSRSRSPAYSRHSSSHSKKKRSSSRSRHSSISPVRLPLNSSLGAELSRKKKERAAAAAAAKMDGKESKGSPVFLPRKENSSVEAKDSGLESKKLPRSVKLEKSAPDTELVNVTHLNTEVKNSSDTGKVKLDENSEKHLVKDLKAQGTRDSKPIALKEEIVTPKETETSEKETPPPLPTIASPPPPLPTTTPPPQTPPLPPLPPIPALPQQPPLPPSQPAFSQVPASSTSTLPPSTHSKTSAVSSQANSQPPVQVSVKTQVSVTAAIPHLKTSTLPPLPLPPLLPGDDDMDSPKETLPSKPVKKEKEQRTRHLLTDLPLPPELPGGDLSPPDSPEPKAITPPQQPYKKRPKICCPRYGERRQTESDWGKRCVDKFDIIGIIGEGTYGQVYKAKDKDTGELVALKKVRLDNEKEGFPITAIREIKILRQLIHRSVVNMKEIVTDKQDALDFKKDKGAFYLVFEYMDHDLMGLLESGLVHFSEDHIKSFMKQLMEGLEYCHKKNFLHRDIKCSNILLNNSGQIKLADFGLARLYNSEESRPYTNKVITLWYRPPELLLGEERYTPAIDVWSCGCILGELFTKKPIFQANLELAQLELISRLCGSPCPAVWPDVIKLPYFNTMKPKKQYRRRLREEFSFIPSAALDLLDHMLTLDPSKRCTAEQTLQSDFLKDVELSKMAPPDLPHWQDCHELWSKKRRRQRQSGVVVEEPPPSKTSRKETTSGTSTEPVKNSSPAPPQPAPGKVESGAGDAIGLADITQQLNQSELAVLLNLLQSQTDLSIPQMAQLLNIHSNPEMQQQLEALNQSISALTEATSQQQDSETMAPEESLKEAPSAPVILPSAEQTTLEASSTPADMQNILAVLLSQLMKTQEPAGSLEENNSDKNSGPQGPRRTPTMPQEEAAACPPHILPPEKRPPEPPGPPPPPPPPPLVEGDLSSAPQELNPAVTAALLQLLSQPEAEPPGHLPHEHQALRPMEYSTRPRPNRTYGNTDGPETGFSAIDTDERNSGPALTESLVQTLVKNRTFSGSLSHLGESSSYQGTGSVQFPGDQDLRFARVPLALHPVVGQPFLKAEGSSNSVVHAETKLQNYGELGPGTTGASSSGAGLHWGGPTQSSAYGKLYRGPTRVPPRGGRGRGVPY
T1 sequence (Q16531 whole entry, species assumed): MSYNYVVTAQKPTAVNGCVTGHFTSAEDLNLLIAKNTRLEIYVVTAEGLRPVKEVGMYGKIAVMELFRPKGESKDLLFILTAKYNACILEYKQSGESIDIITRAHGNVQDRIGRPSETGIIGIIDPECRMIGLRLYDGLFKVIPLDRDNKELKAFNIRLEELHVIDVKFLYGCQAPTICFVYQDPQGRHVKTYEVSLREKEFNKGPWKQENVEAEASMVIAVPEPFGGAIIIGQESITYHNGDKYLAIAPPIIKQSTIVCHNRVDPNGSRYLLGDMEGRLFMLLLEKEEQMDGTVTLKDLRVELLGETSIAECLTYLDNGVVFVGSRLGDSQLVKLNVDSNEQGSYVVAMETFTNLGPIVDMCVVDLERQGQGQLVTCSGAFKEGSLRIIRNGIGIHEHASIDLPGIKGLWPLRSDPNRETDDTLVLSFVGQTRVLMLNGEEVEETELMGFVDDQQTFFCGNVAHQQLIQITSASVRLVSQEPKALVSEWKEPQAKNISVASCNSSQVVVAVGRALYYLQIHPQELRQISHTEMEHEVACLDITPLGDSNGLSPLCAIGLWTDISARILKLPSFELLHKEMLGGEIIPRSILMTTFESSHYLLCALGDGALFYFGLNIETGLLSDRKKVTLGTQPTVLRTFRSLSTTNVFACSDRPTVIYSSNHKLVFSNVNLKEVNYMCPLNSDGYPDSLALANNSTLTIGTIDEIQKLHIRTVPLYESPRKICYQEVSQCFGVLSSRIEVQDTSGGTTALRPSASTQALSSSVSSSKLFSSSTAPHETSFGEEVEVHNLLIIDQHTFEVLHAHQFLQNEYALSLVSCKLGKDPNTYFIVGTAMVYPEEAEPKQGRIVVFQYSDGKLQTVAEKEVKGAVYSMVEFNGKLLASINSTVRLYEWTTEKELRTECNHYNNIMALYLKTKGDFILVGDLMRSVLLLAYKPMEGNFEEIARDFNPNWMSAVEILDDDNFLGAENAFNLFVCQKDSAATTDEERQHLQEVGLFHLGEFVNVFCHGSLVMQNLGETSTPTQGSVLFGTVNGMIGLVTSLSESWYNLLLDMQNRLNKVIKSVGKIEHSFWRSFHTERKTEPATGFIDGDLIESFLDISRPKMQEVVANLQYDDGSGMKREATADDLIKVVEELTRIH

As for `C=C(COC(=O)n1c(CNc2nc(N3CCNCC3)nc3c(Br)cnn23)nc2cc(C)ccc21)C(=O)N1C[C@H](COc2nc(Nc3cnn(C)c3)nc3[nH]cc(Cl)c23)[C@@H](OC)C1` [Compound V-4], the DC50 in assay [1], in assay [2] (setting [3]), in assay [2] (setting [4]), in assay [2] (setting [5]) and in assay [2] (setting [6]) was less than 250 nM each time.
Regarding `C=C(COc1cc(-c2ccccn2)ccc1CNc1nc(N[C@H](CC)CO)nc2c1ncn2C(C)C)C(=O)N[C@@H]1CN(c2nc(Nc3cn(C)nc3OC)c3ncn(C)c3n2)C[C@H]1F` [II-183], the DC50 in assay [2] (setting [3]) and in assay [2] (setting [4]) was less than 250 nM in each case.
`C=C(COC(=O)N1CCN(c2nc(NCc3nc4cc(C)ccc4[nH]3)n3ncc(Br)c3n2)CC1)C(=O)N1C[C@H](COc2nc(Nc3cnn(C)c3)nc3[nH]cc(Cl)c23)[C@@H](OC)C1` [II-185]: the DC50 in assay [1] was less than 250 nM; in assay [2] (setting [3]), 250 to 5000 nM; in assay [2] (setting [4]), 250 to 5000 nM; in assay [2] (setting [5]), less than 250 nM; in assay [2] (setting [6]), less than 250 nM.
Take `C=C(COc1cc(-c2ccccn2)ccc1CNc1nc(N[C@H](CC)CO)nc2c1ncn2C(C)C)C(=O)N1CCN(c2nc(OC[C@@H]3CCCN3C)nc3c2CCN(c2cccc4cccc(Cl)c24)C3)C[C@@H]1CC#N` [II-186]: the DC50 in assay [1] is 250 to 5000 nM; in assay [2] (setting [7]), 250 to 5000 nM; in assay [2] (setting [8]) it was less than 250 nM.
Consider `C=C(CN1CCN(c2nc(NCc3nc4cc(C)ccc4[nH]3)n3ncc(Br)c3n2)CC1)C(=O)Nc1cc(Nc2nccc(-c3cn(C)c4ccccc34)n2)c(OC)cc1N(C)CCN(C)C` [II-188], for which the DC50 in assay [1] was less than 250 nM; in assay [2] (setting [3]) it was less than 250 nM; in assay [2] (setting [4]), less than 250 nM; in assay [2] (setting [6]), more than 10000 nM.
For the compound `C=C(CN1CCN(c2nc(NCc3nc4cc(C)ccc4[nH]3)n3ncc(Br)c3n2)CC1)C(=O)N1CCN(c2nc(OC[C@@H]3CCCN3C)nc3c2CCN(c2cccc4cccc(Cl)c24)C3)C[C@@H]1CC#N` [II-190], the DC50 in assay [1], in assay [2] (setting [7]) and in assay [2] (setting [8]) was less than 250 nM each time.
`C=C(CN1CCN(c2nc(NCc3nc4cc(C)ccc4[nH]3)n3ncc(Br)c3n2)CC1)C(=O)Nc1cccc(-c2cccc3cnc(Nc4ccc(N5CCN(CCO)CC5)c(F)c4F)nc23)c1` [II-191]: the DC50 in assay [2] (setting [3]) is 250 to 5000 nM; in assay [2] (setting [4]), 5000 to 10000 nM.
